We go through 13 compounds from patent US20190075787A1, “COMPOSITIONS AND METHODS FOR CROP DEFENSE” (AdvanSix Resins & Chemicals LLC, priority 2017, published 2019).

For data set [1] the following is noted: general statement, no test described; cited from earlier work.
The conditions of data set [2]: general statement, no test described; cited from earlier work. The source holds these as a separate data set.
Data set [3] is described as follows: Herbicide comparative solubility: saflufenacil dissolved in each solvent. The format is physicochemical. The following applies: room temperature; vials of 20, 30, 40 and 50 wt. % saflufenacil. As for the experimental part: (§1) The solubility of the herbicide saflufenacil was determined for thirteen solvents. Three of the solvents were caprolactam-derived solvents in accordance with this disclosure. The remaining ten were comparative solvents. The solubility of saflufenacil was evaluated for each solvent by preparing four, 2 ml vials containing 20 wt. %, 30 wt. %, 40 wt. % and 50 wt. % of saflufenacil. To prepare the 20 wt. % vial, 0.040 g of saflufenacil was added to 0.160 ml of solvent. To prepare the 30 wt. % vial, 0.060 g of saflufenacil was added to 0.140 ml of solvent. To prepare the 40 wt. % vial, […] of saflufenacil was added to 0.120 ml of solvent. To prepare the 50 wt. % vial, 0.100 g of saflufenacil was added to 0.100 ml of solvent. The vials were capped and swirled at room temperature until no change in solubility was observed. […] Solvents 1-3 are in accordance with the present disclosure. Solvents 4-13 are comparative solvents.

A short description of data set [4]: Insecticide comparative solubility: bifenthrin dissolved in each solvent. The format is physicochemical. Conditions: room temperature; vials of 20, 30, 40 and 50 wt. % bifenthrin.
Data set [5] can be described thus: Fungicide comparative solubility: tebuconazole dissolved in each solvent. The format is physicochemical. The following applies: room temperature; vials of 20, 30, 40 and 50 wt. % tebuconazole. As for the experimental part: as §1, with “observed. Test samples including the fungicide tebuconazole were prepared as described above for Example 1 for saflufenacil.” for “observed.”, “As in Table 1 above, solvents” for “Solvents”, “disclosure and solvents” for “disclosure. Solvents”

Data set [6] can be described thus: Hansen Solubility Parameters of solvents. The class given is physicochemical. The source says:
As is known in the art, Hansen Solubility Parameters can be used to predict the effectiveness of a solvent. […] Thus, one skilled in the art would not expect the caprolactam-derived solvents to be as effective as NMP and other commonly used solvents.

Molecules are shown by their SMILES.

With `CN1CCCCCC1=O` [Solvent 1, N-methylcaprolactam], the carcinogen result in data set [1] is “not considered to be either a reproductive toxin or a carcinogen”. Further, the reproductive toxin entry in data set [2] was “not considered to be either a reproductive toxin or a carcinogen”.
On to `CN1CCCCCC1=O` [Solvent 1], for which the “maximum weight percentage of saflufenacil dissolved in each solvent” value in data set [3] amounted to 40%. Moreover, in data set [4], the “maximum weight percentage of bifenthrin dissolved in each solvent” value came out at 40%. In data set [5], the “maximum weight percentage of tebuconazole dissolved in each solvent” value is 50%.
Consider `CCN1CCCCCC1=O` [Solvent 2], for which the “maximum weight percentage of saflufenacil dissolved in each solvent” value in data set [3] is recorded as 30%. The “maximum weight percentage of bifenthrin dissolved in each solvent” value in data set [4] is listed as 50%. Further, in data set [5], the “maximum weight percentage of tebuconazole dissolved in each solvent” value is on record as 50%.
With `CCCCN1CCCCCC1=O` [Solvent 3], in data set [3], the “maximum weight percentage of saflufenacil dissolved in each solvent” value amounted to 20%. Besides, the “maximum weight percentage of bifenthrin dissolved in each solvent” value in data set [4] turned out to be 40%. Besides, the “maximum weight percentage of tebuconazole dissolved in each solvent” value in data set [5] turned out to be 40%.
In the case of `CN1CCCC1=O` [Solvent 4, N-methyl-2-pyrrolidone], the reproductive toxin entry in data set [2] is on record as “has been found to be a reproductive toxin”.
Take `CN1CCCC1=O` [Solvent 4]: the “maximum weight percentage of saflufenacil dissolved in each solvent” value in data set [3] is listed as 50%. In addition, the “maximum weight percentage of bifenthrin dissolved in each solvent” value in data set [4] is on record as 50%. Besides, the “maximum weight percentage of tebuconazole dissolved in each solvent” value in data set [5] was 50%.
As to `CCCCN1CCCC1=O` [Solvent 5], in data set [3], the “maximum weight percentage of saflufenacil dissolved in each solvent” value is 30%. Also, the “maximum weight percentage of bifenthrin dissolved in each solvent” value in data set [4] came to 50%. Further, in data set [5], the “maximum weight percentage of tebuconazole dissolved in each solvent” value was found to be 40%.
As for `CCCCCCCCCC(=O)N(C)C` [Solvent 6], the “maximum weight percentage of saflufenacil dissolved in each solvent” value in data set [3] amounted to 30%. The “maximum weight percentage of bifenthrin dissolved in each solvent” value in data set [4] is 30%. In addition, the “maximum weight percentage of tebuconazole dissolved in each solvent” value in data set [5] is reported as 30%.
On to `COC(=O)CCCCC(=O)N(C)C` [Solvent 7, N,N-dimethyladipamide methyl ester], for which, in data set [6], the “Hansen Solubility Parameters: Dispersion” value was 17.2, the “Hansen Solubility Parameters: Hydrogen Bonding” value came to 9.3 and the “Hansen Solubility Parameters: Polarity” value is on record as 9.7.
Regarding `O=C1CCCCC1` [Solvent 9], the “maximum weight percentage of saflufenacil dissolved in each solvent” value in data set [3] is below 20%. For the same compound, in data set [4], the “maximum weight percentage of bifenthrin dissolved in each solvent” value is given as 50%. Besides, the “maximum weight percentage of tebuconazole dissolved in each solvent” value in data set [5] was 40%.
On the same counts, the results for `N#CCCN1CCCCCC1=O` [Solvent 13] are below 20%, below 20% and below 20%.
For `O=C1CCCCCN1` [caprolactam], the carcinogen result in data set [1] was “has not been found to be, and is not expected to be, either a reproductive toxin or a carcinogen”. Moreover, the reproductive toxin result in data set [2] is “has not been found to be, and is not expected to be, either a reproductive toxin or a carcinogen”.
Take `CC1=CC(=O)CC(C)(C)C1` [isophorone]: in data set [1], the carcinogen entry is on record as “suspected carcinogen”.
